The numbers were not newly measured in patent US12233048B2 (Société des Produits Nestlé S.A., priority 2022, dated 2025), which cites them from elsewhere.

In the case of `COc1ccc2[nH]cc(CCNC(C)=O)c2c1` [melatonin, N-acetyl-5-methoxytryptamine], where the note is “after ingestion”, the “time after ingestion for blood plasma concentration to reach its peak” value is on record as “more than 30 minutes”. Also, the bioavailability result (exogenous melatonin) is “poor and highly variable”.
